In the test the test system is E. coli (both strains). Nature of the test: Minimum biofilm eradication assay, E. coli both strains. It counts as cell-based, Escherichia coli. As to the method: We tested the susceptibility of different bacterial and yeast strains to compounds 5a–f by determining the minimum biofilm eradication concentration (MBEC). The test was performed in a sterile 96-well flat-bottom plastic tissue culture plate (TPP, Switzerland). Each well was filled with 100 µl of bacterial (10^7 CFUs/ml) or yeast (5 × 10^6 CFUs/ml) suspension. When the possibility of inhibition of yeast biofilm formation was tested, the wells were pre-treated with FBS (250 µl per well). Negative controls contained broth only. Positive controls were performed using standard antibacterial and antifungal drugs gentamycin and amphotericin B, respectively. The plates were covered and incubated aerobically for 24 h (bacteria) or 48 h (yeast) at 37 °C. Following the incubation period, each well was aspirated and washed three times with 250 µl of PBS and vigorously shaken in order to remove all non-adherent bacteria/yeast. The remaining attached cells were fixed with methanol (15 min) and the plates were left to dry overnight. The formed biofilm was stained with crystal violet (1%, 5 min). Excess stain was rinsed by placing the plate under running tap water and the plates were left to dry for 24 h. Adherent cells were resolubilized with acetic acid (33%, v/v). The optical density of each well was measured at 570 nm using a Multiscan plate reader. […]

The structures appear in SMILES notation.

Consider `COc1cc(NC(C)CCCN)c2ncccc2c1` (stereo not shown) [PQ, 8-[(4-amino-1-methylbutyl)amino]-6-methoxyquinoline, reference compound], for which the MBEC was found to be 25 µg/mL.

The record behind these values is PMC6021035, “Insights into biological activity of ureidoamides with primaquine and amino acid moieties” (Journal of Enzyme Inhibition and Medicinal Chemistry, 2018).
